Assay results from patent US12116421B2, “Peptide-based Dopa containing adhesive gels” (KING ABDULLAH UNIVERSITY OF SCIENCE AND TECHNOLOGY, priority 2020, dated 2024).
Where a SMILES comes first, the peptide text is derived from it. [ ]: non-standard residue; d: D form. Dopa = N[C@@H](Cc1ccc(O)c(O)c1)C(=O)O; Cha = N[C@@H](CC1CCCCC1)C(=O)O

Legend:
[1] = AFM force spectroscopy adhesion measurement in liquid; assay type: physicochemical
Description: In one embodiment, the peptides were dissolved in the proper solution at a concentration of 10 mg/mL. The peptide solutions were spotted on a freshly cleaved mica sheet and the measurement was performed in liquid.
In one embodiment, the adhesion properties of the Dopa peptides are influenced by the construct lysine-Dopa and by the position of the catechol moiety in the peptide sequence, as indicated by the AFM force spectroscopy results in liquid. In a typical force spectroscopy curve the probe is several times approached to the surface and retracted and for every cycle of retraction the maximum force of adhesion is recorded. The incorporation of a catechol moiety near a lysine would enhance adhesion to negatively charged surfaces. FIG. 28 illustrates the effect of lysine on adhesion to negatively charged surfaces. Therefore, probes and substrates that were manifesting negative charges on their surfaces, such as the silicon probe and the freshly cleaved mica substrate, are used in the AFM spectroscopy. The setup of probe and substrate is illustrated in FIG. 29.
The peptides dissolved in the proper solution at 13 mM concentration each, were spotted on a freshly cleaved mica sheet and the measurement was performed in liquid. Several force curves were recorded for different buffers. […] In FIG. 30, the inset image represents the maximum extension of each peptide dissolved in water, when manually pulled between two glass slides. Also in FIG. 30, the approach part of the curve contains the important information defined as “jump to contact”, while the retract part of the F-D curve contains the adhesion force value. […] Two controls were also introduced: namely the original peptide IIZK, and an alternative peptide IIFK. To better understand the influence of Dopa on the adhesion properties of the peptide, the original short peptide IIZK would make a perfect negative control. We also introduced as a control the IIFK peptide in order to understand the effect of IIZK itself on adhesion. In FIG. 32, statistical significance expressed as p<0.01.
AFM topography measurements were performed on a Dimension Icon SPM (Bruker®). The samples were prepared as follows: peptides were dissolved at 13 mM concentration in MilliQ® water; after 30 minutes, 20 μl of these solutions were dropped on freshly cleaved mica sheets and immediately dried with an N2 stream. Measurements were immediately performed in tapping mode in air by the use of an AFM probe AC_240TS_R3 (Olympus®) with nominal free oscillation at roughly 70 kHz and a nominal spring constant of 2 N/m. The probe was calibrated by contact-free method.^54 Free oscillation amplitude was set at 200 mV with a 5% damping during tapping mode measurement. AFM adhesion measurements were performed on a JPK Nanowizard™ III mounted on Olympus® IX-81 inverted optical microscope. A mica sheet was glued one day before the experiment with double component epoxy glue to a glass slide and enclosed in a plastic o-ring provided by the JPK company for liquid measurements. Each peptide was dissolved in MilliQ® water at a concentration of 13 mM and mixed gently. Starting with the measurement in MilliQ® water, 50 μL of the solution were dropped on the freshly cleaved mica sheet within 5 minutes from the preparation of the solution and let equilibrate for 10 minutes. After, the excess solution was removed by pipetting and discarded. Then 1 mL of MilliQ® water was added gently from the side and after 5 minutes, the sample was rinsed 3 times by additional 1 mL MilliQ® water. Finally, the sample was measured by AFM force spectroscopy (Quantitative imaging mode) with additional 1 mL MilliQ® water. The MilliQ® water was exchanged after the measurement alternatively with a water solution containing 137 mM NaCl or 10 mM Phosphate ions (a combination of Na2HPO4·7H2O and NaH2PO4·H2O to reach pH 7.4). After performing the force spectroscopy map in these two different solutions, eventually, the liquid was exchanged with 1×PBS pH 7.4. […]

[2] = tested on: mouse myoblast cells (C2C12); assay: Cytocompatibility of peptide nanogels, 3D culture, MTT and live/dead staining; assay type: cell-based; conditions: for effect on cell growth: C2C12, nanogel 3 mg/mL, compared to 2D culture; for biocompatibility with C2C12 cells: hydrogel scaffold, live/dead staining versus 2D culture
Description: In one embodiment, cytocompatibility of the peptide nanogels was evaluated using mouse myoblast cells (C2C12). After 24 hours of incubation, cell proliferation was tested with DoIIZK, IIZDoK, IIZKDo, IIZ(KDo)2 and IIZ(KDo)3 at a concentration of 3 mg/mL to evaluate biocompatibility. The MTT (3-(4,5-dimethylthiazol-2-yl)-2,5-diphenyltetrazolium bromide) assay was used in order to quantify the number of viable cells. In one embodiment, a standard curve for a known number of cells was also plotted. In one embodiment, the test results were compared to the positive control 2D culture. A positive indication of cytocompatibility would be the survival of the cells following incubation with the peptides. For comparison, peptides DoIIZK, IIZDoK, IIZKDo, IIZ(KDo)2 and IIZ(KDo)3 were tested as part of the study. The cytocompatibilty of all peptides tested was evaluated by quantifying the survival cells by visualising the live/dead cells using calcein AM and Ethidium bromide staining.
Poli-D Lysine (PDL) was used for 2D control. The scalebar in FIG. 35 is 200 μm. Cytocompatibility of all peptides was evaluated by quantifying the survival cells by visualising the live/dead cells using calcein AM and Ethidium homodimer staining. The live cells are stained green by calcein AM, while the dead cells are stained red by Ethidium homodimer.
For mouse myoblast cells (C2C12) culture expansion, C2C12 cells were cultured either in a T175 or T75 culture flask in complete DMEM media (10% FBS and 1% P/S). The cells were placed in a humidified incubator at 37° C., with 95% air and 5% CO2. Then they were subcultured using trypsin at approximately 80% confluence. Fresh culture media was added every 48 h to each well, after removing the previous media.
For 3D culture of mouse myoblast cells in peptide hydrogels and cell viability assay, C2C12 cells were encapsulated in peptide hydrogels in a 96-well plate.^61 Briefly, peptide solutions DopaIIZK, IIZDopaK, IIZKDopa (3 mg/mL) were added to 40 μL/well. Mouse myoblast cells (30,000 cells/well) that were re-suspended in 2×PBS were then, mixed gently with the peptide solutions. The gelation time was 1-3 min for all 5 peptides. Subsequently, the culture medium was added to the wells.
The viability of 3D cultured cells was assessed using the LIVE/DEAD Viability/Cytotoxicity Kit (ThermoFisher®, USA)^11. Calcein acetoxymethyl ester (Calcein-AM) is used to detect viable cells and ethidium homodimer-I (EthD-I) is used to detect dead cells. Briefly, staining with 2 μM of Calcein-AM and 4 μM of EthD-1 is performed after washing with Dulbecco's phosphate-buffered saline (D-PBS). After 30 minutes incubation, the staining solution was discarded, and 1×D-PBS was added to each well before imaging. Stained cells were imaged with an inverted confocal microscope (Zeiss® LSM 710 Inverted Confocal Microscope, Germany) or ZEISS® fluorescent microscope.

[3] = tested on: mouse myoblast cells (C2C12); assay: as above; assay type: cell-based; conditions: various concentrations up to the solubility limit of the peptides

Ac-Ile-Ile-Phe-Lys-NH2 (Ac-IIFK-NH2) [alternative peptide used as control, reference compound]
Force of adhesion (Geometric Mean) ([1]; 10 mM PO4, peptide 13 mM): 8.358 PN | Force of adhesion (Geometric Mean) ([1]; 137 mM NaCl, peptide 13 mM): 13.217 PN | Force of adhesion (Geometric Mean) ([1]; 1×PBS, peptide 13 mM): 12.13 PN | Force of adhesion (Geometric Mean) ([1]; MilliQ water, peptide 13 mM): 89.77 PN | reduction of adhesion values by addition of both NaCl and PO4 ([1]; NaCl and PO4 versus MilliQ water): about 80%

CC[C@H](C)[C@H](NC(C)=O)C(=O)N[C@H](C(=O)N[C@@H](CC1CCCCC1)C(=O)N[C@@H](CCCCN)C(=O)N[C@@H](Cc1ccc(O)c(O)c1)C(=O)N[C@@H](CCCCN)C(=O)N[C@@H](Cc1ccc(O)c(O)c1)C(=O)N[C@@H](CCCCN)C(=O)N[C@@H](Cc1ccc(O)c(O)c1)C(N)=O)[C@@H](C)CC [IIZ(KDo)3] (Ac-II[Cha]K[Dopa]K[Dopa]K[Dopa]-NH2)
effect on cell growth [2]: reduced cell growth | biocompatibility with C2C12 cells [2]: not biocompatible | cell viability / toxicity [3]: toxic

Ac-II[Cha]K-NH2 [IIZK, reference compound]
Force of adhesion (Geometric Mean) ([1]; 10 mM PO4, peptide 13 mM): 5.681 PN | Force of adhesion (Geometric Mean) ([1]; 137 mM NaCl, peptide 13 mM): 100.4 PN | Force of adhesion (Geometric Mean) ([1]; 1×PBS, peptide 13 mM): 11.5885 PN | Force of adhesion (Geometric Mean) ([1]; MilliQ water, peptide 13 mM): 75.66 PN | increase of adhesion force by addition of NaCl ([1]; NaCl versus MilliQ water): 20%

CC[C@H](C)[C@H](NC(C)=O)C(=O)N[C@H](C(=O)N[C@@H](CC1CCCCC1)C(=O)N[C@@H](CCCCN)C(=O)N[C@@H](Cc1ccc(O)c(O)c1)C(=O)N[C@@H](CCCCN)C(=O)N[C@@H](Cc1ccc(O)c(O)c1)C(N)=O)[C@@H](C)CC [IIZ(KDo)2] (Ac-II[Cha]K[Dopa]K[Dopa]-NH2)
effect on cell growth [2]: did not affect cell growth | metabolic activity of cells versus 2D cultures ([2]; cells cultured in nanogels, 2D = cells in absence of peptides): consistently comparable to 2D cultures | time cells stay metabolically active in nanogel ([2]; cells grown in nanogels): metabolically active for up to day 21 | biocompatibility with C2C12 cells [2]: biocompatible | cell viability / toxicity [3]: good viability
